The values that follow come from patent publication US9102701B2, “17-hydroxy-17-pentafluoroethyl-estra-4,9(10)-diene-11-ethynylphenyl derivatives, methods for the production thereof and use thereof for treating diseases” (Bayer Intellectual Property GmbH, priority 2009, dated 2015).

For orientation: IC50 means the point on the concentration scale where inhibition reaches its midpoint. A word on the solubility: it is the dissolved amount per volume that the medium holds. A higher solubility goes with much dissolved substance.

In data set [1] the target is T1, human progesterone receptor B (Homo sapiens, UniProt P06401).
T1 construct: expressed in transfected cells; host or cells: SK-N-MC human neuroblastoma cells, stably transfected with pRChPR-B-neo and pMMTV-LUC
T1 sequence (P06401 1-933): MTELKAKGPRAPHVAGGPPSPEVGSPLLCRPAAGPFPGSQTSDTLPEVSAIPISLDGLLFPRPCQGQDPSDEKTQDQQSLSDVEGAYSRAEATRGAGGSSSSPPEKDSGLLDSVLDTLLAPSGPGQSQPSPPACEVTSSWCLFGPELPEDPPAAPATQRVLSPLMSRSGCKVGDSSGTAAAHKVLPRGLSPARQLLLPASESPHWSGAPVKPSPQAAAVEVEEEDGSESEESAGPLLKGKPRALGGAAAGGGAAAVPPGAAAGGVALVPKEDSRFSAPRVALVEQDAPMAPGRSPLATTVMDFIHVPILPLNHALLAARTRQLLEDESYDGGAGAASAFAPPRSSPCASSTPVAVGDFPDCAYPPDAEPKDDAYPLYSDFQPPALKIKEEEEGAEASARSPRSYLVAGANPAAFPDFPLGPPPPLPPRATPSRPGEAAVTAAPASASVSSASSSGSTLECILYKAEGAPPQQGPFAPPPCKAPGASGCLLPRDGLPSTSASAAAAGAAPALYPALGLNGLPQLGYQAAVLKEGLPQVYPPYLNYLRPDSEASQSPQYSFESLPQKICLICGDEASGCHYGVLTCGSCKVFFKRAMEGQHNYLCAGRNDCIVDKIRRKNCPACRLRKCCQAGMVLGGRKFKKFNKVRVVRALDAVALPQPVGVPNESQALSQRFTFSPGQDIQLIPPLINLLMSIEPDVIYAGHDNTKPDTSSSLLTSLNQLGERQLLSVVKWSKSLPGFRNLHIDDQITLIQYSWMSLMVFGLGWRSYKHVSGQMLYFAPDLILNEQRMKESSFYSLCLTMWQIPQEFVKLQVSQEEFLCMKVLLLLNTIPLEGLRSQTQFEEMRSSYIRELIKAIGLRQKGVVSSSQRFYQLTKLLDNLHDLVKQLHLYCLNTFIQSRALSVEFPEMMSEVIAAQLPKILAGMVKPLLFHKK
Briefly: Progesterone receptor-antagonistic action in stably transfected SK-N-MC cells, PR-B, MMTV-LUC reporter. As to conditions: read-out: IC50 PR-B. The data set is classed as cell-based. The method, boiled down:
(§1)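 SK-N-MC neuroblastoma cells stably expressing human PR-A or PR-B plus MMTV-LUC reporter, treated 24 h with compound (0.01 nmol/l upward). Antagonism measured against 0.1 nmol/l promegestone; luciferase in lysates as RLU, given as % efficacy and IC50 (agonism as EC50).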

For data set [2], the target named is T2, human progesterone receptor A (Homo sapiens, UniProt P06401).
T2 construct: expressed in transfected cells; host or cells: SK-N-MC human neuroblastoma cells, stably transfected with pRChPR-A-neo and pMMTV-LUC
T2 sequence (P06401 1-769 isoform P06401-2): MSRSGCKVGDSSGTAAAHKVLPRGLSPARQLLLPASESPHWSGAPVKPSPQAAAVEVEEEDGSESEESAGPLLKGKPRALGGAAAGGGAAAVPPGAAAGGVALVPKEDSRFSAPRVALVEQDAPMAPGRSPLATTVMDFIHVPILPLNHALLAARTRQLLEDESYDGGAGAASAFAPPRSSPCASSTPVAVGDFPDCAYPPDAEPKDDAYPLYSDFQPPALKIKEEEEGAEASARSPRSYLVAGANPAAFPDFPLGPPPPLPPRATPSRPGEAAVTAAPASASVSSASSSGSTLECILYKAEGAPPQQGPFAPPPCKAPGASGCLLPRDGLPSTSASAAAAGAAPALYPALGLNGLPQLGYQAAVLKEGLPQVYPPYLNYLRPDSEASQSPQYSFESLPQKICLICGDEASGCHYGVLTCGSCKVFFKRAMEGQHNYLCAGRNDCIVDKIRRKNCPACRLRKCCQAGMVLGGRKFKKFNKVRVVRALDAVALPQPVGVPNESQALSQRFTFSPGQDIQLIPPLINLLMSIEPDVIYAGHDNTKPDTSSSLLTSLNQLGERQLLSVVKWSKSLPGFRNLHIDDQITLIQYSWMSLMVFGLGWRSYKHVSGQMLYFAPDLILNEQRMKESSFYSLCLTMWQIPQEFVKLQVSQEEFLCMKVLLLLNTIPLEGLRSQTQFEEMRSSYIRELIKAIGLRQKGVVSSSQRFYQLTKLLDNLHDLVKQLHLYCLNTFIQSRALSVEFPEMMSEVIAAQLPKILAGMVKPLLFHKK
Briefly: Progesterone receptor-antagonistic action in stably transfected SK-N-MC cells, PR-A, MMTV-LUC reporter. The data set is classed as cell-based. As to conditions: read-out: IC50 PR-A. The method, boiled down: as §1

Data set [3] in a line: Metabolic stability in human liver microsomes. The data set is classed as in vitro ADME. The following applies: for Predicted Fmax (maximum oral bioavailability) Human: calculated from liver microsome data; for Predicted clearance Human: predicted in vivo clearance from liver microsomes, well-stirred model, 1 μM. The method, then:
Determination of Metabolic Stability in Human and Rat Liver Microsomes
Isolated Human Liver Microsomes (HLM) were Used to Assess the Metabolic Stability of compounds of general formula I.
The incubations were conducted with 2.4 ml of HLM solution (protein content 0.5 mg/ml), 30 μl of the test compound (final concentration 1 μM) and 0.6 ml of the cofactor mixture (═NADPH-generating system composed of 3 IU glucose-6-phosphate dehydrogenase, 14.6 mg glucose-6-phosphate, 1.2 mg NADP) at 37° C. in 100 mM phosphate buffer at pH 7.4. Samples were taken at 6 time points (2-60 min) and precipitated with an equal volume of methanol, and the recovery of the test substances used in the supernatant was determined by LC-MS/MS analysis. The half-life of substance degradation determined therefrom was used to calculate what is called the intrinsic clearance of the substance in the liver microsome preparation.

Data set [4] can be described thus: Solubility in aqueous medium at pH 7.4. It counts as physicochemical. The following applies: for solubility (in words): aqueous medium under physiological conditions; for solubility: aqueous medium, pH 7.4, aqueous buffer.

In brackets after ≈: the same amount, converted by molar mass.

Take `C[C@]12C[C@H](c3ccc(C#CCOCCO)cc3)C3=C4CCC(=O)C=C4CC[C@H]3[C@@H]1CC[C@@]2(O)C(F)(F)C(F)(F)F` [Example 11, (8S,11R,13S,14S,17S)-17-hydroxy-11-{4-[3-(2-hydroxyethoxy)prop-1-yn-1-yl]-phenyl}-13-methyl-17-pentafluoroethyl-1,2,6,7,8,11,12,13,14,15,16,17-dodecahydrocyclopenta[a]phenanthren-3-one]: the IC50 in data set [1] was 1 nM. For the same molecule, the IC50 in data set [2] was 0.32 nM. In data set [3], the “Predicted Fmax (maximum oral bioavailability) Human” value (from here on “Predicted Fmax”) is 63% and the “Predicted clearance Human” value is 8.17 mL/min/kg. In data set [4], the “solubility (in words)” value was “improved solubility” and the solubility was found to be 30 µg/mL (≈ 53.1 µM).
Regarding `C[C@]12C[C@H](c3ccc(C#C/C=C\C#N)cc3)C3=C4CCC(=O)C=C4CCC3C1CC[C@@]2(O)C(F)(F)C(F)(F)F` (stereo partly drawn) [Example 5, (Z)-5-[4-((8S,11R,13S,14S,17S)-17-hydroxy-13-methyl-3-oxo-17-pentafluoroethyl-2,3,6,7,8,11,12,13,14,15,16,17-dodecahydro-1H-cyclopenta[a]phenanthren-1′-yl)phenyl]pent-2-en-4-ynenitrile], the values for the IC50 in data set [1] and in data set [2] were 0.76 nM and 0.72 nM, respectively. In data set [3], the “Predicted clearance Human” value is 2.83 mL/min/kg. Also, the concentration in solution in data set [4] (solubility) came to 8 µg/mL (≈ 14.8 µM).
Consider `CCO/N=C/C#Cc1ccc([C@H]2C[C@@]3(C)[C@@H](CC[C@@]3(O)C(F)(F)C(F)(F)F)[C@@H]3CCC4=CC(=O)CCC4=C32)cc1` [Example 25A, (E)-[4-((8S,11R,13S,14S,17S)-17-hydroxy-13-methyl-3-oxo-17-pentafluoroethyl-2,3,6,7,8,11,12,13,14,15,16,17-dodecahydro-1H-cyclopenta[a]phenanthren-1′-yl)phenyl]propynal O-ethyl oxime], for which the IC50 turned out to be 0.08 nM in data set [1] and 0.01 nM in data set [2]. Besides, in data set [3], the “Predicted Fmax” value is listed as 47%. In addition, in data set [3], the “Predicted clearance Human” value is 11.7 mL/min/kg. Besides, the concentration in solution in data set [4] (solubility) was 5 µg/mL (≈ 8.9 µM).
Turning to `C[C@]12C[C@H](c3ccc(C#CCNC(=O)Nc4ccc(F)cc4)cc3)C3=C4CCC(=O)C=C4CC[C@H]3[C@@H]1CC[C@@]2(O)C(F)(F)C(F)(F)F` [Example 36, 1-{3-[4-((8S,11R,13S,14S,17S)-17-hydroxy-13-methyl-3-oxo-17-pentafluoroethyl-2,3,6,7,8,11,12,13,14,15,16,17-dodecahydro-1H-cyclopenta[a]phenanthren-11-yl)phenyl]prop-2-ynyl}-3-(4-fluorophenyl)urea], the IC50 came to 0.2 nM in data set [1] and 0.1 nM in data set [2]. Further, the “Predicted Fmax” value in data set [3] is 55%. Besides, the “Predicted clearance Human” value in data set [3] was 10 mL/min/kg. Further, the solubility in data set [4] came out at 4 µg/mL (≈ 6.09 µM).
Consider `CCNC(=O)NCC#Cc1ccc([C@H]2C[C@@]3(C)C(CC[C@@]3(O)C(F)(F)C(F)(F)F)C3CCC4=CC(=O)CCC4=C32)cc1` (stereo partly drawn) [Example 31, 1-ethyl-3-{3-[4-((8S,11R,13S,14S,17S)-17-hydroxy-13-methyl-3-oxo-17-pentafluoroethyl-2,3,6,7,8,11,12,13,14,15,16,17-dodecahydro-1H-cyclopenta[a]phenanthren-1′-yl)phenyl]prop-2-ynyl}urea], for which, in data set [1], the IC50 was 0.1 nM. In data set [2], the IC50 amounted to 0.08 nM. In data set [3], the “Predicted Fmax” value is 15% and the “Predicted clearance Human” value was 18.8 mL/min/kg. Further, the solubility in data set [4] came to 10 µg/mL (≈ 16.9 µM).
For `C[C@]12C[C@H](c3ccc(C#C/C=N/OCc4ccccc4)cc3)C3=C4CCC(=O)C=C4CCC3C1CC[C@@]2(O)C(F)(F)C(F)(F)F` (stereo partly drawn) [Example 24A, (E)-[4-((8S,11R,13S,14S,17S)-17-hydroxy-13-methyl-3-oxo-17-pentafluoroethyl-2,3,6,7,8,11,12,13,14,15,16,17-dodecahydro-1H-cyclopenta[a]phenanthren-1′-yl)phenyl]propynal O-benzyl oxime], the IC50 in data set [1] and in data set [2] was 0.1 nM in each case. Further, the “Predicted Fmax” value in data set [3] is 34%. Further, the “Predicted clearance Human” value in data set [3] is 14.7 mL/min/kg. Also, the concentration in solution in data set [4] (solubility) was 5 µg/mL (≈ 8.02 µM).
`C[C@]12C[C@H](c3ccc(C#CC(=O)O)cc3)C3=C4CCC(=O)C=C4CCC3C1CC[C@@]2(O)C(F)(F)C(F)(F)F` (stereo partly drawn) [Example 2, [4-((8S,11R,13S,14S,17S)-17-hydroxy-13-methyl-3-oxo-17-pentafluoroethyl-2,3,6,7,8,11,12,13,14,15,16,17-dodecahydro-4H-cyclopenta[a]phenanthren-11-yl)phenyl]propynoic acid]: the IC50 in data set [1] came out at 16 nM. The IC50 in data set [2] turned out to be 32 nM. In addition, the “Predicted clearance Human” value in data set [3] is 0 mL/min/kg. Moreover, in data set [4], the “solubility (in words)” value was “improved solubility” and the concentration in solution (solubility) came to 178 µg/mL (≈ 333 µM).
In the case of `C[C@]12C[C@H](c3ccc(C#CCNC(=O)Nc4ccccc4)cc3)C3=C4CCC(=O)C=C4CC[C@H]3[C@@H]1CC[C@@]2(O)C(F)(F)C(F)(F)F` [Example 34, 1-{3-[4-((8S,11R,13S,14S,17S)-17-hydroxy-13-methyl-3-oxo-17-pentafluoroethyl-2,3,6,7,8,11,12,13,14,15,16,17-dodecahydro-1H-cyclopenta[a]phenanthren-11-yl)phenyl]prop-2-ynyl}-3-phenylurea], the IC50 in data set [1] was 0.1 nM. Moreover, the IC50 in data set [2] came out at 0.1 nM. In addition, in data set [3], the “Predicted Fmax” value is 9% and the “Predicted clearance Human” value was 20.2 mL/min/kg. The molecule further had a solubility in data set [4] of 7 µg/mL (≈ 11 µM).
For the molecule `C[C@]12C[C@H](c3ccc(C#C/C=C/c4cccc(C(=O)O)c4)cc3)C3=C4CCC(=O)C=C4CCC3C1CC[C@@]2(O)C(F)(F)C(F)(F)F` (stereo partly drawn) [Example 13A, 3-{(E)-4-[4-((8S,11R,13S,14S,17S)-17-hydroxy-13-methyl-3-oxo-17-pentafluoroethyl-2,3,6,7,8,11,12,13,14,15,16,17-dodecahydro-1H-cyclopenta[a]phenanthren-1′-yl)phenyl]but-1-en-3-ynyl}benzoic acid], the IC50 was found to be 0.2 nM in data set [1] and 0.1 nM in data set [2]. In data set [3], the “Predicted clearance Human” value was 5.17 mL/min/kg. In addition, the “solubility (in words)” value in data set [4] was “improved solubility”. Besides, the solubility in data set [4] worked out at 148 µg/mL (≈ 232 µM).
